From patent US10072304B2, “Nuclear localization of Src-family tyrosine kinases is required for growth factor-induced euchromatinization” (National University Corporation Chiba University, priority 2009, dated 2018)

System: COS-1 cells
Test: Quantitation of chromatin condensation levels (S.D. value of PI intensity per pixel) in COS-1 cells
Type: cell-based, monkey
Procedure: COS-1, HeLa cells (Japanese Collection of Research Bioresources, Osaka), MCF-7 (provided by H. Saya), A431 (provided by M. N. Fukuda), HEK293 (provided by […]), HCT116 (provided by T. Tomonaga), and SYF ([37]; provided by M. Okada and S. Nada) cells were cultured in Iscove's modified DME containing 5% fetal bovine serum (FBS). Cells were transiently transfected with 0.5 μg of plasmid vector using Trans IT Transfection reagent (Mirus) or with 1 μg of plasmid vector using linear polyethylenimine (25 kDa) (Polyscience, Inc.). For growth factor stimulation, COS-1 cells were starved under low serum conditions (0.05% FBS) for 24 h and restimulated with serum (5% FBS). For stimulation of endogenous SFKs, cells were treated with 3 mM Na3VO4 for 3 h, and SFK-mediated tyrosine phosphorylation was verified by treatment with 10 μM PP2 (SFK inhibitor; Calbiochem) or 100 nM wortmannin (PI3K inhibitor; Alomone Labs) for 21 h before Na3VO4 treatment. Na3VO4 was dissolved at 500 mM in 500 mM unbuffered HEPES before use. For preparation of stable transfectant clones, SYF cells transfected with c-Src-wt or Lyn-wt were selected in 333 μg/mL Zeocin (Invitrogen), and COS-1 cells were transfected with the BOSH2BGFP-N1 vector, which encodes GFP-tagged histone H2B ([39,40]; provided by H. Saya), were selected in 3 μg/mL blasticidin. Confocal and Nomarski differential-interference-contrast images were obtained using a Fluoview FV500 confocal laser scanning microscope with a 40×1.00 NA oil and a 100×1.35 NA oil immersion objective (Olympus, Tokyo) and an LSM 510 confocal laser scanning microscope with a 63×1.40 NA oil immersion objective (Zeiss), as described. One planar (xy) section slice (0.6-μm thickness) is shown in all experiments. In brief, cells were fixed with 4% paraformaldehyde for 20 min, and permeabilized in phosphate-buffered saline (PBS) containing 0.1% saponin and 3% bovine serum albumin at room temperature. Cells were subsequently reacted with an appropriate primary antibody for 1 h, washed with PBS containing 0.1% saponin, stained with FITC- or TRITC-conjugated secondary antibody for 1 h. […] To ensure no bleed-through from the fluorescein signal into the red channel, fluorescein and rhodamine were independently excited at 488 nm and 543 nm, respectively. PI was excited at 488 or 543 nm. Emission signals were detected between 505 and 525 nm for fluorescein, at more than 560 nm for rhodamine and more than 610 nm for PI [44]. Composite figures were prepared using Photoshop 5.0 and Illustrator 9.0 software (Adobe). For nuclear staining with anti-pTyr, anti-ATF-2 […]/71, and anti-histone H3K4me3 antibodies, cells were in situ extracted with 0.5% Triton X-100 at 4° C. for 3 min before fixation with 4% paraformaldehyde. For HP1α staining, cells were fixed in 100% methanol at -20° C. for 10 min followed by permeabilization for 30 min in PBS containing 0.1% Triton X-100 at room temperature. Cells were reacted with anti-HP1α antibody for 1 h at room temperature, washed with PBS four times, and stained with secondary antibody for 1 h. Fluorescence intensity plots of anti-histone H3K4me3, anti-ATF-2 […]/71 and anti-HP1α antibody and PI staining (see FIGS. 18B, 19B, and 20B, respectively) were generated using Fluoview version 4.3 software (Olympus, Tokyo). For detection of the kinase activity of nuclear SFKs, purified nuclei suspended in kinase buffer (50 mM HEPES-NaOH, pH7.4, 5 mM MgCl2, 5 mM MnCl2 and 0.1 mM Na3VO4) were preincubated with or without 10 μM PP2 at 30° C. for 30 min, and subsequently incubated with 5 or 10 μM ATP at 30° C. for 30 min, followed by cytocentrifugation at 200×g for 5 min and fixation with 4% paraformaldehyde. DNA was stained with 20 μg/mL PI and 200 μg/mL RNase A for 30 min. Mean fluorescence intensity of tyrosine-phosphorylated proteins in the nucleus was measured using the ImageJ software (National Institutes of Health). Confocal images of PI-stained nuclei were obtained as described above. […]

Compound | hypo- and hypercondensed chromatin states (COS-1, 3 mM Na3VO4 for 3 h, FIGS. 23 and 26) | basal levels of chromatin condensation (COS-1, 10 μM PP2 or 100 nM wortmannin for 24 h, FIGS. 22 and 26) | chromatin hypo- and hypercondensation in Na3VO4-treated cells (COS-1, 10 μM PP2 pretreatment 21 h, then 3 mM Na3VO4 3 h, FIGS. 23 and 26) | serum-stimulated chromatin hypo- and hypercondensation (COS-1 starved 24 h (0.05% FBS), stimulated with 5% FBS in presence of 10 μM PP2, FIG. 16) | hyperosmotic stress-induced chromatin structural changes (cells not specified, hyperosmolar conditions, data not shown)
[Na+].[Na+].[Na+].[O]=[V]([O-])([O-])[O-] [Na3VO4, sodium orthovanadate] | induced drastic changes | – | – | – | –
CC(C)(C)n1nc(-c2ccc(Cl)cc2)c2c(N)ncnc21 [PP2] | – | significantly reduce | decrease | significantly inhibited | did not inhibit
